The test relates to E. coli. Kind of test: Bacterial susceptibility testing, MIC by broth microdilution (CLSI). To be noted: for E. coli MIC: broth microdilution, 35° C., 18-24 h; for MIC: Escherichia coli, read-out: E. coli MIC, broth microdilution, 35° C., 18-24 h. A general note: Broth dilution looks for growth in wells or tubes with falling amounts of substance.

≈ marks a conversion by molar mass, not a printed value.

Description: Minimal inhibitory concentrations (MIC) were determined by the broth microdilution method in accordance with the Clinical and Laboratory Standards Institute (CLSI) guidelines. In brief, organism suspensions were adjusted to a 0.5 McFarland standard to yield a final inoculum between 3×10^3 and 7×10^5 colony-forming units (CFU)/mL. Drug dilutions and inocula were made in sterile, cation adjusted Mueller-Hinton Broth (Beckton Dickinson). An inoculum volume of 100 μL was added to wells containing 100 μL of broth with 2-fold serial dilutions of drug.

Consider `O=C(CO)NC1CCN(Cc2ccc(C#Cc3ccc(C(CO)Cc4nc[nH]c(=O)c4O)cc3)cc2)CC1` (stereo not drawn) [Compound 242], for which the “E. coli MIC” value is given as “A (A: ≤1 μg/mL)”.
Regarding `NCC1CN(Cc2ccc(C#Cc3ccc(C(CO)Cc4nc[nH]c(=O)c4O)cc3)cc2)CCO1` (stereo not drawn) [Compound 258], the MIC (commonly the lowest concentration that inhibits growth of the organism) lay in the range of 1 to 8 µg/mL (≈ 2.11 to 16.9 µM).
As to `O=c1[nH]cnc(CC(CO)c2ccc(C#Cc3ccc(CN[C@@H]4CCOC4)cc3)cc2)c1O` (mixture of isomers) [Compound 11], the MIC was less than 1 µg/mL.
`O=C(NCCF)C(Cc1nc[nH]c(=O)c1O)c1ccc(C#Cc2ccc(CN3CCOCC3)cc2)cc1` (stereo not drawn) [Compound 21]: the “E. coli MIC” value was “B (B: >1 μg/mL to ≤8.0 μg/mL)”.
As for `O=c1[nH]cnc(CC(CO)c2ccc(C#Cc3ccc(CNC4CCS(=O)(=O)C4)cc3)cc2)c1O` (stereo not drawn) [Compound 38], the MIC was less than 1 µg/mL.
As to `NC1(Cc2ccc(C#Cc3ccc(C(CO)Cc4nc[nH]c(=O)c4O)cc3)cc2)CCOCC1` (stereo not drawn) [Compound 64], the MIC was in the range of 1 to 8 µg/mL (≈ 2.18 to 17.4 µM).
As to `COC1CN(Cc2ccc(C#Cc3ccc([C@@H](CNC4(C)CC4)Cc4nc[nH]c(=O)c4O)cc3)cc2)C1` (single isomer, unassigned) [Compound 251], the MIC is less than 1 µg/mL.
The same measure, in the same setting: for `O=c1[nH]cnc(C[C@H](CNCCCF)c2ccc(C#Cc3ccc(CN4CCOCC4)cc3)cc2F)c1O` (single isomer, unassigned) [Compound 237] the value was less than 1 µg/mL; for `NC(Cc1nc[nH]c(=O)c1O)c1ccc(-c2ccc(CCN3CCOCC3)cc2)cc1` (stereo not drawn) [Compound 214], 8 to 32 µg/mL (≈ 19 to 76.1 µM); for `CC(CO)(Cc1nc[nH]c(=O)c1O)c1ccc(C#Cc2ccc(CN[C@H]3CCOC3)cc2)cc1` (mixture of isomers) [Compound 32], less than 1 µg/mL.
In the case of `O=C(CO)NC1CCN(Cc2ccc(C#Cc3ccc(C(CO)Cc4nc[nH]c(=O)c4O)cc3)cc2)CC1` (stereo not drawn) [Compound 240], the MIC is less than 1 µg/mL.
In the case of `C[C@@H](CF)NCC(Cc1nc[nH]c(=O)c1O)c1ccc(C#Cc2ccc(CN[C@H]3CCOC3)cc2)cc1` (mixture of isomers) [Compound 110], the minimum inhibitory concentration (MIC) was less than 1 µg/mL.
As to `N#CCCNCC(Cc1nc[nH]c(=O)c1O)c1ccc(C#Cc2ccc(CN3CCOCC3)cc2)cc1` (stereo not drawn) [Compound 130], the MIC lay within 1 to 8 µg/mL (≈ 2.01 to 16.1 µM).
Consider `O=c1[nH]cnc(CC(CNCC(F)F)c2ccc(C#Cc3ccc(CN4CCOCC4)cc3)cc2)c1O` (stereo not drawn) [Compound 115], for which the MIC is less than 1 µg/mL.
On the same count and under the same terms, then `C[C@@H](CF)NCC(Cc1nc[nH]c(=O)c1O)c1ccc(C#Cc2ccc(CN3CC(C#N)C3)cc2)cc1` (stereo partly drawn) [Compound 81], with less than 1 µg/mL; and `O=c1[nH]cnc(C[C@H](CO)c2ccc(C#Cc3ccc(CN4CC5(CCO5)C4)cc3)cc2F)c1O` (single isomer, unassigned) [Compound 273], with less than 1 µg/mL.
With `NCc1ccc(C#Cc2ccc(C(CO)Cc3nc[nH]c(=O)c3O)cc2)cc1` (stereo not drawn) [Compound 63], the MIC was in the range of 1 to 8 µg/mL (≈ 2.66 to 21.3 µM).
In the case of `O=c1[nH]cnc(CC(CO)c2ccc(C#Cc3ccc(CNC4C5COCC54)cc3)cc2)c1O` (stereo not drawn) [Compound 37], the MIC is less than 1 µg/mL.
Still for that read-out and setting: then `O=c1[nH]cnc(CC(CNC2CC2)c2ccc(C#Cc3ccc(CN4CCOCC4)cc3)cc2)c1O` (stereo not drawn) [Compound 118], with less than 1 µg/mL; and `CC(C#N)NC(=O)C(Cc1nc[nH]c(=O)c1O)c1ccc(C#Cc2ccc(CN3CCOCC3)cc2)cc1` (stereo not drawn) [Compound 28], with 1 to 8 µg/mL (≈ 1.95 to 15.6 µM); and `O=c1[nH]cnc(CC(CO)c2ccc(C#Cc3ccc(CN4CC5(CCCO5)C4)cc3)cc2)c1O` (stereo not drawn) [Compound 42], with less than 1 µg/mL.
The same measure, in the same setting: then `N#C[C@@H]1CCN(Cc2ccc(C#Cc3ccc([C@@H](CNCC(F)F)Cc4nc[nH]c(=O)c4O)c(F)c3)cc2)C1` (single isomer, unassigned) [Compound 281], with less than 1 µg/mL; and `COC1CN(Cc2ccc(C#Cc3ccc(C(CNC(CO)CF)Cc4nc[nH]c(=O)c4O)cc3)cc2)C1` (stereo not drawn) [Compound 244], with 1 to 8 µg/mL (≈ 1.92 to 15.4 µM).
As to `O=c1[nH]cnc(CC(CNCCCF)c2ccc(C#Cc3ccc(CN4CCOCC4)cc3)cc2)c1O` (stereo not drawn) [Compound 106], the “E. coli MIC” value is “B (B: >1 μg/mL to ≤8.0 μg/mL)”.
With `O=c1[nH]cnc(CC(CO)c2ccc(C#Cc3ccc(CNCC4CCOC4)cc3)cc2)c1O` (stereo not drawn) [Compound 52], the MIC lay within 1 to 8 µg/mL (≈ 2.18 to 17.4 µM).
Take `COC1CN(Cc2ccc(C#Cc3ccc(C(CNC(C)(C)CF)Cc4nc[nH]c(=O)c4O)cc3)cc2)C1` (stereo not drawn) [Compound 221]: the MIC is less than 1 µg/mL.
Same read-out and setting: then `O=c1[nH]cnc(CC(O)c2ccc(C#Cc3ccc(CN[C@@H]4CCOC4)cc3)cc2)c1O` (mixture of isomers) [Compound 271], with less than 1 µg/mL.
With `O=c1[nH]cnc(CC(CN[C@H]2C[C@@H](F)C2)c2ccc(C#Cc3ccc(CN4CCOCC4)cc3)cc2)c1O` (stereo partly drawn) [Compound 76], the “E. coli MIC” value was “A (A: ≤1 μg/mL)”.
For `O=c1[nH]cnc(C[C@@H](CNCC(F)F)c2ccc(C#Cc3ccc(CN4CCOCC4)cc3)cc2)c1O` (single isomer, unassigned) [Compound 116], the minimum inhibitory concentration (MIC) was 1 to 8 µg/mL (≈ 1.97 to 15.7 µM).
Turning to `O=c1[nH]cnc(C[C@H](CN2CC(O)C2)c2ccc(C#Cc3ccc(CN4CCOCC4)cc3F)cc2)c1O` (single isomer, unassigned) [Compound 275], the MIC was less than 1 µg/mL.
Turning to `COC1CN(Cc2ccc(C#Cc3ccc(C(Cc4nc[nH]c(=O)c4O)CN4C(=O)OC[C@@H]4C)cc3)cc2)C1` (stereo partly drawn) [Compound 122], the “E. coli MIC” value is on record as “A (A: ≤1 μg/mL)”.
Take `NC(Cc1nc[nH]c(=O)c1O)c1ccc(C#Cc2ccc(CN3CCOCC3)cc2)cc1` (stereo not drawn) [Compound 65]: the minimal inhibitory concentration (MIC) was less than 1 µg/mL.
Same read-out and setting: then `O=c1[nH]cnc(CC(CO)c2ccc(C#Cc3ccc(CNC4CCOCC4)cc3)cc2)c1O` (stereo not drawn) [Compound 53], with 1 to 8 µg/mL (≈ 2.18 to 17.4 µM).
As for `CC(C)(CF)NCC(Cc1nc[nH]c(=O)c1O)c1ccc(C#Cc2ccc(CN3CCOCC3)cc2)cc1` (stereo not drawn) [Compound 301], the MIC is less than 1 µg/mL.
Same read-out and setting: for `C[C@H](O)CNC[C@@H](Cc1nc[nH]c(=O)c1O)c1ccc(C#Cc2ccc(CN3CCOCC3)cc2)cc1` (single isomer, unassigned) [Compound 245] the value was less than 1 µg/mL.
For the molecule `O=c1[nH]cnc(CC(CN[C@H]2C[C@H](F)C2)c2ccc(C#Cc3ccc(CN4CCOCC4)cc3)cc2)c1O` (stereo partly drawn) [Compound 79], the “E. coli MIC” value is listed as “A (A: ≤1 μg/mL)”.
With `CCOC(=O)C(Cc1nc[nH]c(=O)c1O)c1ccc(C#Cc2ccc(CNC3COC3)cc2)cc1` (stereo not drawn) [Compound 50], the MIC lay in the range of 1 to 8 µg/mL (≈ 2.11 to 16.9 µM).
Still for that read-out and setting: then `CC(=O)N1CC[C@H](NCC(Cc2nc[nH]c(=O)c2O)c2ccc(C#Cc3ccc(CN4CCOCC4)cc3)cc2)C1` (single isomer, unassigned) [Compound 182], with 1 to 8 µg/mL (≈ 1.8 to 14.4 µM); and `CS(=O)(=O)CCNCC(Cc1nc[nH]c(=O)c1O)c1ccc(C#Cc2ccc(CN3CCOCC3)cc2)cc1` (stereo not drawn) [Compound 128], with 1 to 8 µg/mL (≈ 1.82 to 14.5 µM); and `C[C@@H](CF)NCC(Cc1nc[nH]c(=O)c1O)c1ccc(C#Cc2ccc(C(O)CO)cc2)cc1` (single isomer, unassigned) [Compound 252], with less than 1 µg/mL.
Regarding `COCC(Cc1nc[nH]c(=O)c1O)c1ccc(C#Cc2ccc(CN3CCOCC3)cc2)cc1` (stereo not drawn) [Compound 190], the MIC was less than 1 µg/mL.
Consider `COC1CN(Cc2ccc(C#Cc3ccc(C(C)(CN[C@@H](C)CF)Cc4nc[nH]c(=O)c4O)cc3)cc2)C1` (mixture of isomers) [Compound 143], for which the MIC is less than 1 µg/mL.
Same read-out and setting: for `O=C(CO)N1CCC(NCc2ccc(C#Cc3ccc(C(CO)Cc4nc[nH]c(=O)c4O)cc3)cc2)CC1` (stereo not drawn) [Compound 157] the value was 1 to 8 µg/mL (≈ 1.94 to 15.5 µM).
`COC(=O)C(Cc1nc[nH]c(=O)c1O)N1Cc2cc(C#Cc3ccc(CN4CCOCC4)cc3)cn2C1=O` (stereo not drawn) [Compound 192]: the MIC was 1 to 8 µg/mL (≈ 1.93 to 15.5 µM).
Consider `NC(Cc1nc[nH]c(=O)c1O)c1ccc(C#Cc2ccc(CN[C@@H]3CCOC3)cc2)cc1` (mixture of isomers) [Compound 173], for which the MIC was less than 1 µg/mL.
Take `CO[C@@H]1CCN(Cc2ccc(C#Cc3ccc(C(CNCC(C)F)Cc4nc[nH]c(=O)c4O)cc3)cc2)C1` (single isomer, unassigned) [Compound 136]: the “E. coli MIC” value is on record as “D (D: >32 μg/mL)”.
In the case of `NCC(Cc1nc[nH]c(=O)c1O)c1ccc(C#Cc2ccc(CN3CCOCC3)cc2)cc1` (stereo not drawn) [Compound 18], the MIC was 1 to 8 µg/mL (≈ 2.25 to 18 µM).
As for `CC(NCC(F)F)C(Cc1nc[nH]c(=O)c1O)c1ccc(C#Cc2ccc(CN3CCOCC3)cc2)cc1` (stereo not drawn) [Compound 131], the MIC is 1 to 8 µg/mL (≈ 1.91 to 15.3 µM).
In the case of `CNCc1ccc(C#Cc2ccc(C(CO)Cc3nc[nH]c(=O)c3O)cc2)cc1` (stereo not drawn) [Compound 61], the MIC fell in the range of 1 to 8 µg/mL (≈ 2.57 to 20.5 µM).
As to `COC1CN(Cc2ccc(C#Cc3ccc(C(CNCC(C)F)Cc4nc[nH]c(=O)c4O)cc3)cc2)C1` (stereo not drawn) [Compound 101], the MIC was less than 1 µg/mL.
On the same count and under the same terms, then `COC1CN(Cc2ccc(C#Cc3ccc([C@H](Cc4nc[nH]c(=O)c4O)CN4CC(C#N)C4)cc3)cc2)C1` (single isomer, unassigned) [Compound 218], with less than 1 µg/mL; and `CC(F)CNCC(Cc1nc[nH]c(=O)c1O)c1ccc(C#Cc2ccc(CCN3CCOCC3)cc2)cc1` (stereo not drawn) [Compound 138], with 1 to 8 µg/mL (≈ 1.93 to 15.4 µM); and `N#CC1CN(CC(Cc2nc[nH]c(=O)c2O)c2ccc(C#Cc3ccc(CN4CCOCC4)cc3)cc2)C1` (stereo not drawn) [Compound 102], with less than 1 µg/mL.
Take `O=c1[nH]cnc(CC(CNC2CC2)c2ccc(C#Cc3ccc(CN4CCOCC4)cc3)cc2)c1O` (stereo not drawn) [Compound 120]: the “E. coli MIC” value is reported as “B (B: >1 μg/mL to ≤8.0 μg/mL)”.
For the molecule `COC1CN(Cc2ccc(C#Cc3ccc([C@@H](Cc4nc[nH]c(=O)c4O)NS(C)(=O)=O)cc3)cc2)C1` (single isomer, unassigned) [Compound 299], the MIC is less than 1 µg/mL.
In the case of `CS(=O)(=O)NC(Cc1nc[nH]c(=O)c1O)c1ccc(C#Cc2ccc(CN3CCOCC3)cc2)cc1` (stereo not drawn) [Compound 289], the MIC was less than 1 µg/mL.
With `O=C(CO)N1CC[C@@H](NCc2ccc(C#Cc3ccc(C(CO)Cc4nc[nH]c(=O)c4O)cc3)cc2)C1` (mixture of isomers) [Compound 44], the MIC was less than 1 µg/mL.
Turning to `CC(CF)NC(Cc1nc[nH]c(=O)c1O)c1ccc(C#Cc2ccc(CN3CCOCC3)cc2)cc1` (stereo not drawn) [Compound 141], the minimal inhibitory concentration (MIC) was less than 1 µg/mL.
For `O=C(CO)N1CC[C@@H](NCc2ccc(C#Cc3ccc(C(CO)Cc4nc[nH]c(=O)c4O)cc3)cc2)C1` (single isomer, unassigned) [Compound 46], the “E. coli MIC” value is on record as “A (A: ≤1 μg/mL)”.
`O=c1[nH]cnc(CC(NCCCCl)c2ccc(C#Cc3ccc(CN4CCOCC4)cc3)cc2)c1O` (stereo not drawn) [Compound 172]: the MIC was less than 1 µg/mL.

The values are drawn from patent publication US11407740B2 (priority 2018, dated 2022).
